In patent US8252532B2 (University of Connecticut, priority 2006, dated 2012):

Columns and labels:
Ovcar-3 cells = assay: Apoptotic nuclei in Ovcar-3 cells (DAPI staining); format: cell-based, human; settings: for effect on CDDP-induced apoptosis: simultaneous treatment with CDDP
Method: In order to assess the effects of CDDP, P4 and PGRMC1's role in regulating the viability of ovarian cancer cells, Ovcar-3 cells were used. Ovcar-3 cells were maintained in culture as described by Kim et al (23). Briefly, Ovcar-3 cells were cultured in RPMI-1640 medium (Invitrogen, Grand Island, N.Y.) supplemented with 10% fetal bovine serum (HyClone, Logan, Utah), 100 U/ml penicillin G, 100 ug/ml streptomycin (Invitrogen, Grand Island, N.Y.), at 37° C. in a humidified atmosphere of 5% CO2 incubator. The Ovcar-3 cells were cultured for 72 hours before each experiment.
PGRMC1 siRNA treatment was used to deplete PGRMC1 levels (28). In this protocol, PGRMC1 depletion was performed by transfecting PGRMC1 siRNA using siPORT NeoFX transfection protocol outlined by Ambion. Studies were conducted in which either scramble (control) siRNA (Cat#: AM4611) or one of three pre-designed human PGRMC1 siRNAs (Ambion siRNA ID#: 18430, 18340, 18248) were transfected at a concentration of 30 nM. Levels of PGRMC1 mRNA and protein were assessed by real-time PCR and western blot, respectively as previously described. In addition and immunocytochemical analysis confirmed that PGRMC1 siRNA (ID#: 18248) was an effective PGRMC1 siRNA. This siRNA targeted Exon 1 of PGRMC1 (forward, 5′-[…]tt and reverse, 5′-[…]tt). Based on this, Ovcar-3 cells were cultured for 3 days and then treated for 3 days with either scramble or PGRMC1 siRNA (ID#: 18248). The cells were then treated for 24 h with CDDP (15 μM) and P4 (1 μM) and observed apoptosis as described below.
Finally, a blocking antibody study was conducted as previously described (25). Ovcar-3 were plated and cultured for 3 days as previously described. The cells were then washed and cultured for 24 h with serum-supplemented containing CDDP (15 μM) and P4 (1 μM) and either rabbit IgG (20 μg/ml) or the antibody to PGRMC1 (20 μg/ml). After culture the cells were rinsed in Krebs/Hepes buffer and stained to detect apoptotic nuclei as described below.
Regardless of the experimental design, in situ DNA staining was used to identify apoptotic nuclei by adding DAPI directly to the culture medium at a final concentration of 2 μg/ml. The cultures were incubated for 10 min at 37° C. in the dark. After staining, the cells were observed under epi-fluorescent optics. Under these conditions only cells with condensed or fragmented nuclei were stained intensely with DAPI. The DAPI-stained cells also stained with YOPRO-1, a well-known nuclear stain that identifies apoptotic cells (19, 25, 28). These cells were considered to be apoptotic (25). At least 100 cells/culture well were counted and the percentage of apoptotic nuclei in each well determined. For the data shown in FIGS. 12 and 15, cells were selected randomly. In FIG. 6 the apoptotic status (i.e. DAPI staining; blue fluorescence) was determined for 100 transfected cells per well as indicated by their GFP (i.e. green) fluorescence.

[1] = test system: human granulosa/luteal cells; assay: Apoptotic nuclei in human granulosa/luteal cells after serum withdrawal (TUNEL, in situ DNA staining); format: cell-based
Method: After the oocytes were removed, follicular aspirates were pooled and centrifuged at 250×g for 10 minutes. The cell pellet was resuspended in serum-free culture medium, layered on HISTOPAQUE-1077 and centrifuged for 30 minutes at 400×g. After centrifugation, the opaque interface containing the granulosa/luteal cells was carefully aspirated and transferred into a 15 ml sterile conical centrifuge tube. The cells were then washed by resuspending the cells in 12 ml of PBS and centrifuging them at 250×g for 10 minutes. This was repeated two additional times. The cell pellet was then resuspended in 1 ml of 0.25% trypsin-EDTA solution and incubated for 5 minutes to dissociate the cells. After trypsinization, 5 ml of serum-supplemented medium was added and the cells were centrifuged at 250×g for 10 minutes. The cells were then resuspended in serum-supplemented medium, counted in a hemacytometer and resuspended to yield a final concentration 1 million cells/ml.
Plastic lab-tek slides (BD Bioscience, Bedford, Mass.), which had been previously coated with Growth Factor Reduced Matrigel Matrix (BD Bioscience, Bedford, Mass.), were plated at about 60,000 cells per well in 0.5 ml of serum-supplemented medium with 2 U/ml (IU) of hCG. The medium was changed after 24 hours to remove any remaining blood cells or non-attached granulosa/luteal cells and the cultures continued for two additional days. The cultures were then subjected to the various experimental treatments as outlined below.
Both TUNEL and in situ DNA staining were used to identify apoptotic nuclei. For the TUNEL assay human granulosa/luteal cells were cultured for 5 hours in serum-free medium and then fixed in 10% formalin. The cells were stained using the Apoptag Peroxidase In Situ kit staining according to manufacture's instructions (Chemicon, Temecula, Calif.). In situ DNA staining was done by adding hydroethidine directly to the culture medium at a final concentration of 3.5 μg/ml. The cultures were incubated for 15 minutes at room temperature in the dark. After staining, the cells observed under epi-fluorescent optics. Under these conditions only cells with condensed or fragmented nuclei were stained intensely with hydroethidine. These cells were considered to be apoptotic in accordance with prior publications in the field. At least 100 cells/culture well were counted and the percentage of apoptotic nuclei in each well determined.
Human granulosa/luteal cells were plated on lab tek slides and cultured for three days as previously described. […] After culture the cells were raised in Krebs/Hepes buffer and stained to detect apoptotic nuclei as taught by Engmann et al., J. of Clinical Endocrinology and Metabolism 91(12): 4962-4968 (2006). One hundred cells in each chamber were counted and the percentage of apoptotic nuclei determined as previously described.

PGRMC1 = PGRMC1 mRNA and protein levels in Ovcar-3 cells after siRNA (real-time PCR, western blot, immunocytochemistry); format: cell-based, human; settings: 72 h treatment; vs scramble control
Method: Real Time PCR. Quantitative measurements of PGR and PGRMC1 mRNA were made on cDNA samples provided by OriGene. […] Primers were evaluated with NCBI blast to confirm product specificity and products were designed to cross intron/exon borders. Primers used were: PGR forward [NT] ID NO: 13) and reverse [NT] ID NO: 14) and PGRMC-1 forward [NT] ID NO: 15) and reverse [NT] ID NO: 16). Quantitative real time PCR was performed on the MyiQ Single-Color Real-Time PCR Detection System (Bio-Rad, Hercules, Calif.). Samples were resuspended in twenty-five μl of the iQ SyberGreen Supermix (Bio-Rad) containing appropriate primers. Relative gene expression was evaluated with Bio-Rad iQ5 software using the ΔCT method (24). Each gene was evaluated on two separate identical array plates, which were loaded with equal amounts of cDNA per well as described by the manufacturer. End products were also run on agarose gels to confirm product size. Immunohistochemistry and immunocytochemistry were also used to assess the localization of PGRMC1 in formalin-fixed paraffin-embedded tissue sections of ovarian cancers and Ovcar-3 cells, respectively. […] Levels of PGRMC1 mRNA and protein were assessed by real-time PCR and western blot, respectively as previously described. […]

## N.N.[Cl][Pt][Cl] [CDDP, cis-diamminedichloroplatinum(II)]
Ovcar-3 cells; 10% fetal bovine serum, FIG. 12B
  percentage of cells that undergo apoptosis (dose dependence): dose-dependent increase
Ovcar-3 cells; in the presence of serum, within 24 h
  percentage of cells in which apoptosis is induced: 40 to 60%

## CC#C[C@]1(O)CC[C@H]2[C@@H]3CCC4=CC(=O)CCC4=C3[C@@H](c3ccc(N(C)C)cc3)C[C@@]21C [RU486]
[1]; 25 and 50 μM doses of RU486
  percentage of apoptotic nuclei: greater than 70%

## CC(=O)[C@H]1CC[C@H]2[C@@H]3CCC4=CC(=O)CC[C@]4(C)[C@H]3CC[C@]12C [progesterone, 4-Pregnene-3,20-dione]
Ovcar-3 cells; addition of P4 to CDDP in serum
  reduction of the killing effect of CDDP: about 40%
Ovcar-3 cells; serum withdrawal
  concentration of maximum effect on inhibition of apoptosis induced by serum withdrawal: ~1 µM
Ovcar-3 cells; serum-free media for 5 h, p<0.05
  effect on rate of apoptosis in serum-free media: attenuated
Ovcar-3 cells; 5 h of culture, p<0.05
  effect on CDDP-induced apoptosis: attenuated
Ovcar-3 cells; 24 h of culture, p<0.05
  effect on CDDP-induced apoptosis: attenuated
[1]; 1 μM progesterone, IgG or IgY control
  effect on apoptosis due to serum-withdrawal in presence of IgG or IgY: suppressed apoptosis
[1]; all doses tested
  effect on apoptosis due to serum withdrawal: suppressed apoptosis
[1]; progesterone 1 μM, RU486 5 μM
  suppression of serum-withdrawal induced apoptosis in presence of RU486: still capable of suppressing serum-withdrawal induced apoptosis
[1]; progesterone 1 μM, RU486 25 and 50 μM
  ability to override the effect of RU486: could not override the effect of RU486
[1]; serum-free medium
  lowest effective dose suppressing apoptosis: 10 nM

## PGRMC1 siRNA (ID#: 18248): Ambion human PGRMC1 siRNA targeting Exon 1, nucleotides 365-386; SEQ ID NO: 7 and 8 (chain 1 GGUGUUCGAUGUGACCAAATT; chain 2 UUUGGUCACAUCGAACACCTT; chemistry not given here)
Ovcar-3 cells; PGRMC1 depleted with siRNA, CDDP and P4
  enhancement of the killing effect of CDDP in the presence of P4: ≥ 50%
Ovcar-3 cells; siRNA 3 days, then 24 h CDDP (15 μM) and P4 (1 μM), p<0.05
  effect on P4's ability to inhibit CDDP-induced apoptosis: attenuated
PGRMC1
  PGRMC1 levels by immunocytochemical analysis: suppress PGRMC1 levels
